Common to all, as to test: inhibition of tumour cell growth, NCI panel, 48 h
For experiment [1], the system named is DU-145 prostate.
Experiment [2] relates to SN12C renal.
The subject of experiment [3] is T-47D breast.
The test system of experiment [4] is OVCAR-4 ovarian.
For experiment [5], the system named is MDA-MB-231 breast.
The subject of experiment [6] is HCT-15 colon.
Experiment [7] relates to UO-31 renal.
Experiment [8] deals with NCI-H460 lung.
For experiment [9], the system named is NCI/ADR-RES ovarian.
Experiment [10] deals with KM12 colon.

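Growth conditions: 96-well plates. Treatment: test compound, 48 hours, 5 concentrations. Analysis: linear interpolation between bracketing concentrations; unreached endpoints set to highest concentration. GI50: concentration for 50% inhibition of growth. TGI: total growth inhibition.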

As to `COC(=O)C(Cc1ccccc1)NC(=O)NC(=O)NC(=O)CI` (stereo not given), the GI50 was 12.1 µM in experiment [1]; 20.3 µM in experiment [2]; 2.71 µM in experiment [3]; 4.41 µM in experiment [4]; 5.2 µM in experiment [5]; 1.66 µM in [6]. The GI50 is 1.83 µM in experiment [7], 22.6 µM in experiment [8], 19.8 µM in [9] and 15.8 µM in experiment [10]. Also, the TGI in [1] was determined as 25.3 µM; in experiment [2] it was 53.3 µM; in experiment [3], 8.5 µM; in experiment [4] it was 24.4 µM; in experiment [5] it was 20.1 µM; in experiment [6] it was 3.13 µM. For the same molecule, the TGI in [7] came out at 3.44 µM; in [8], 50.1 µM; in [9] it was 84.3 µM; in experiment [10], 32.6 µM.

In the case of `CC(=O)NC1=C(OS(=O)(=O)c2ccc(C)cc2)CN(C)C1=O`, the TGI was 16.7 µM in [1]; 16.4 µM in experiment [2]; 9.35 µM in experiment [3]; 20.9 µM in [4]; 23.1 µM in [5]; 13.2 µM in experiment [6]. The TGI in experiment [7] is 14.2 µM; in [8], 7.77 µM; in [9], 44.9 µM; in [10] it was 14.3 µM.

Consider `COc1cccc(NC(=O)c2sc3nc4c(cc3c2N)CN(Cc2ccccc2)CC4)c1`, for which the GI50 in experiment [1] was 5.22 µM; in experiment [2], 11.2 µM; in [3], 4.62 µM; in experiment [4] it was 2.68 µM; in experiment [5], 11.4 µM; in experiment [6] it was 0.93 µM. The GI50 was 3.27 µM in [7], 4.18 µM in experiment [8], 2.4 µM in experiment [9] and 11.8 µM in experiment [10]. The TGI in [1] is 22.2 µM; in experiment [2], over 100 µM; in experiment [3], 47.3 µM; in experiment [4] it was 19.7 µM; in experiment [5], 75.3 µM; in [6], over 100 µM. The TGI in experiment [7] worked out at 32.3 µM; in [8], 30.9 µM; in experiment [9], 33.3 µM; in experiment [10], 40.3 µM.

As to `CCCCNCC(=O)O[C@]1(CC)C(=O)OCc2c1cc1n(c2=O)Cc2cc3ccccc3nc2-1`, the TGI is 1.32 µM in experiment [1]; over 16.2 µM in [2]; 2.44 µM in experiment [3]; 20.4 µM in [4]; over 100 µM in experiment [5]; over 100 µM in experiment [6]. The TGI in experiment [7] turned out to be 1.71 µM; in [8] it was 1.68 µM; in [9] it was 2.03 µM; in [10], 6.55 µM.

As for `COC(=O)Cn1c2c(c3c(O)cccc31)C(=O)c1ccccc1-2`, the GI50 in [1] is over 100 µM; in experiment [2], over 100 µM; in [3], over 100 µM; in experiment [4], over 100 µM; in experiment [5] it was 40.4 µM; in experiment [6], over 100 µM. Also, the GI50 in experiment [7], in [8], in [9] and in [10] was over 100 µM each time. Moreover, the TGI in experiment [1], in [2], in [3], in experiment [4], in experiment [5] and in [6] was over 100 µM in each case. Moreover, the TGI in experiment [7], in experiment [8], in experiment [9] and in experiment [10] was over 100 µM in each case.

For the molecule `CCN1CCC(CCOC)(CN2c3ccccc3Sc3ccc(Cl)cc32)C1` (stereo not given), the GI50 was 1.92 µM in experiment [1]; 12 µM in experiment [2]; 2.05 µM in experiment [3]; 2.72 µM in [4]; 1.86 µM in [5]; 2.04 µM in experiment [6]. For the same molecule, the GI50 in experiment [7] is 1.66 µM; in [8] it was 1.9 µM; in experiment [9] it was 1.73 µM; in experiment [10] it was 1.79 µM. Also, the TGI came to 3.68 µM in experiment [1]; 28.2 µM in experiment [2]; 4.6 µM in [3]; 8.66 µM in experiment [4]; 3.67 µM in [5]; 4.26 µM in experiment [6]. Besides, the TGI in experiment [7] was 3.63 µM; in [8] it was 3.58 µM; in experiment [9] it was 3.89 µM; in experiment [10], 3.43 µM.

Turning to `C=CC(=O)N1CCN(c2ccc3cccc(NC(=O)c4cnc(C)cn4)c3n2)CC1`, the GI50 in experiment [1] was 2.45 µM; in [2], 2.47 µM; in experiment [3], 3.48 µM; in experiment [4], 2.66 µM; in [5], 3.5 µM; in experiment [6], 2.08 µM. The GI50 was 0.351 µM in experiment [7], 2.51 µM in experiment [8], 3.19 µM in [9] and 2.84 µM in experiment [10]. Further, the TGI in [1] was over 100 µM; in experiment [2] it was 16.2 µM; in [3], over 100 µM; in [4] it was over 100 µM; in experiment [5], over 100 µM; in experiment [6], 24.6 µM. For the same molecule, the TGI was 5.14 µM in [7], 19.7 µM in experiment [8], over 100 µM in experiment [9] and 19 µM in [10].

On to `O=[N+]([O-])c1cccc(-c2nc3sccn3c2-c2ccnc(NCCCNS(=O)(=O)c3cccc(F)c3)n2)c1`, for which the GI50 in experiment [1] was 2.6 µM; in experiment [2], 2.71 µM; in experiment [3], 0.391 µM; in experiment [4], 1.64 µM; in experiment [5], 6.41 µM; in experiment [6] it was 2.3 µM. For the same molecule, the GI50 is 1.25 µM in experiment [7], 3.34 µM in [8], 1.72 µM in experiment [9] and 2.39 µM in experiment [10]. Moreover, the TGI in [1] was determined as 12.9 µM; in [2] it was 44.8 µM; in [3], 4.64 µM; in [4] it was 7.64 µM; in [5] it was 27.2 µM; in [6], 12.3 µM. For the same molecule, the TGI in experiment [7] was 9.04 µM; in [8], over 100 µM; in [9], 6.49 µM; in [10], 8.14 µM.
